Series [1] deals with patient-derived breast cancer xenotransplantation model (PDX). In words: Patient-derived breast cancer xenotransplantation model (PDX). The format is in vivo. To be noted: 25 mg/kg IP, 5-day on and 2-day off, 4 weeks. As for the experimental part:
Metarrestin was tested in PC3M xenograft mice to determine whether metarrestin's anti-metastasis activity (observed in the NSG PANC1 mice and in vitro pan-cancer PNC suppression) translates into anti-metastasis activity in additional cancer models. Two weeks after subcutaneous implantation of PC3M cells, mice were started on 5 mg/kg or 25 mg/kg metarrestin or vehicle by daily IP injection for 4 additional weeks. Tumor progression was tracked by both in vivo imaging systems (“IVIS”) spectroscopy and tumor volume. Metastasis to the lungs was evaluated ex vivo through IVIS spectroscopy and by histopathology at the experimental endpoint. […] To evaluate the effect of metarrestin on a malignant xenograft considered closest to in vivo conditions, a patient-derived breast cancer xenotransplantation model (PDX) was used. […] Tumor size and total body weight were measured twice a week, and tumor weight was measured at experimental end-point.
Breast cancer model: The model derived from 0.2 liter of pleural effusion from a breast cancer patient (model #373342). These cancer cells had metastasized to the lung pleura from the initial tumor detected in the breast. […] Tumor size and total body weight were measured twice a week.

For the next series, the system named is PC3M cells. In words: Cell growth (INCUCYTE confluence), PC3M. The format is cell-based, human. An excerpt:
The confluence (%) is on the y-axis and the time (in hours) is on the x-axis. The top most line is GM02153-DMSO, the second line from the top is PC3M-DMSO, the third line from the top is GM02153-metarrestin, and the bottom line is PC3M-metarrestin.

Another series relates to NSG PANC1 mice. In words: Orthotopic pancreatic cancer metastasis model, daily IP treatment. The format is in vivo. How it is done:
Because pancreatic cancer patients suffer particular high mortality from metastasis, the in vivo efficacy of metarrestin against metastasis in an orthotopic pancreatic cancer metastasis model was evaluated. The 3D PANC1 cell spheres model, deployed in NOD/interleukin 2 receptor common gamma chain (Il2rγ)^null (NSG) PANC-1 mice (see Suemizu et al., “Identification of a key molecular regulator of liver metastasis in human pancreatic carcinoma using a novel quantitative model of metastasis in NOD/SCID/gammacnull (NOG) mice.” Int. J. Oncol., (31): 741-51 (2007), incorporated herein in its entirety), recapitulates human cancer progression and metastatic phenotype of the disease without the limitations of early death due to complications of local invasion, such as gastric outlet obstruction or impingement of the common bile duct. Sixty thousand 3D luciferase-expressing PANC1-luc cell spheres were injected orthotopically into the pancreas of NSG mice. […] By 8 weeks, macrometastasis on the liver surface were visible.
Four weeks after inoculation, mice were treated once daily with metarrestin (5 mg/kg or 25 mg/kg) or vehicle via IP injections, continuing for six weeks. […] The treatment was well-tolerated, and animals maintained their body weight (FIG. 11).
To determine whether PNCs in treated animals were impacted by metarrestin, PNC prevalence in primary tumors and metastatic lesions from control and metarrestin-treated animals (25 mg/kg) were examined 12 weeks after tumor inoculation. […] PNC prevalence in non-treated animals was higher in these groups of tumors and metastatic lesions than in those harvested at an earlier time (FIG. 6) or in cultured PANC1 cells (FIG. 2), consistent with previous findings that late-stage cancers have higher PNC prevalence.
Pancreatic cancer model: 60,000 luciferase-tagged PANC1 spheres were injected into the pancreas of Nod/IL2gamma (null) mice (obtained from NCI Mouse Repository, Frederick, Md.; on ACUC-approved animal protocol SB-211-2). At 4 weeks after inoculation, mice were treated once daily with metarrestin (5 mg/kg or 25 mg/kg) or vehicle via IP injections, which extended out for 6 more weeks. Mice were injected with luciferin 5 minutes before being sacrificed by CO2 euthanasia. Organs were then individually dissected, subjected to quantitative xenogene imaging, and fixed with 4% non-buffered formaldehyde. Impact of metastatic burden was calculated and graphed as liver and lung/primary tumor ratios based on a five-minute photon count for the liver normalized to liver weight (g), which was then compared to the average photon count per weight (g) of the primary pancreatic tumor of the same animal. This calculation corrects for variations in luciferin injection, mouse heart rate, and perfusion. For overexpression of eEF1A2, 6*10^4 PANC1 3D spheres transduced with eEF1A2 (eEF1A2 OE) were injected into the tail of the pancreas of NSG mice. Mice of both groups were harvested at 6 weeks after implantation and subjected to necropsy. Liver metastasis/mm^2 was calculated as the sum of the […] of the individual metastases. Tumor volume (mm^3) was calculated as (L×W2), where L=length (mm) and W=width (mm). Animal survival was measured from the first day of treatment until death. […]

The mark [2] stands for this setting: 5 or 25 mg/kg IP once daily for six weeks.

Consider `N=c1c2c(-c3ccccc3)c(-c3ccccc3)n(Cc3ccccc3)c2ncn1[C@H]1CC[C@H](O)CC1` [metarrestin], for which, in series [1], the PDX growth entry is “effectively inhibited the PDX growth”; the “Tolerability (body weight and behavior)” value is listed as “well-tolerated”. For the same molecule, the PC3M cell growth entry in the series with PC3M cells (0.6 μM, after 24 hours of treatment) is reported as “did not affect PC3M or PANC1 cell growth”. Moreover, in the series with PC3M cells (1 μM, extended time, INCUCYTE), the “Cell growth in PC3M cancer cells” value is recorded as “preferentially inhibited cell growth”. The “Metastatic burden in liver” value in the series on NSG PANC1 mice (25 mg/kg IP once daily for six weeks, vs vehicle, p<0.01) is “decrease in metastatic burden”. In the series on NSG PANC1 mice (25 mg/kg IP once daily for six weeks, vs vehicle, p<0.05), the “Metastatic burden in lung” value is given as “decrease in metastatic burden”. Further, in the series on NSG PANC1 mice (25 mg/kg, 12 weeks after tumor inoculation, p<0.01), the “PNC prevalence in metastatic and primary tumor tissues” value is on record as “significant reduction of PNC prevalence”. In the series with NSG PANC1 mice (setting [2]), the Primary tumor weight result was “not significantly changed” and the “Tolerability, body weight” value is “well-tolerated”.

The values above are taken from US20210186972A1, “FORMULATIONS AND METHODS FOR THE PREVENTION AND TREATMENT OF TUMOR METASTASIS AND TUMORIGENESIS” (THE UNITED STATES OF AMERICA, AS REPRESENTED BY THE …, priority 2018, published 2021).
